{
  "source": "ChEMBL document CHEMBL4680214",
  "about": "“Fluorinated derivatives of 2-phenyl-3-hydroxy-4(1H)-quinolinone as tubulin polymerization inhibitors” (Eur J Med Chem, 2020)",
  "key": {"[1]": {"tested_on": "HCT-116", "assay": "Cell cycle arrest in human HCT-116 cells assessed as phosphorylation of histone H3 at Ser10 at 5 times IC50 measured after 24 hrs by propidium iodide staining based flow cytometry (reference value: 3.4%)", "type": "functional"}, "[2]": {"tested_on": "HCT-116", "assay": "Cell cycle arrest in human HCT-116 cells assessed as accumulation at G2/M phase at 5 times IC50 measured after 24 hrs by propidium iodide staining based flow cytometry (reference value: 27.0%)", "type": "functional"}, "[3]": {"tested_on": "HCT-116", "assay": "Cell cycle arrest in human HCT-116 cells assessed as phosphorylation of histone H3 at Ser10 at IC50 measured after 24 hrs by propidium iodide staining based flow cytometry (reference value: 3.4%)", "type": "functional"}, "[4]": {"tested_on": "CCRF-CEM", "assay": "Cytotoxicity against human daunorubicine-resistant CCRF-CEM cells incubated for 72 hrs by MTS assay", "type": "functional, cell-based"}, "[5]": {"tested_on": "HCT-116", "assay": "Cell cycle arrest in human HCT-116 cells assessed as accumulation at sub-G1 phase at IC50 measured after 24 hrs by propidium iodide staining based flow cytometry (reference value: 1.6%)", "type": "functional"}, "[6]": {"tested_on": "CCRF-CEM", "assay": "Cell cycle arrest in human CCRF-CEM cells assessed as accumulation at S phase at 5 times IC50 measured after 24 hrs by propidium iodide staining based flow cytometry (reference value: 42.2%)", "type": "functional"}, "[7]": {"tested_on": "CCRF-CEM", "assay": "Cell cycle arrest in human CCRF-CEM cells assessed as BrU incorporation at IC50 measured after 24 hrs by propidium iodide/immunostaining based flow cytometry (reference value: 52.2%)", "type": "functional"}, "[8]": {"tested_on": "CCRF-CEM", "assay": "Cell cycle arrest in human CCRF-CEM cells assessed as phosphorylation of histone H3 at Ser10 at 5 times IC50 measured after 24 hrs by propidium iodide staining based flow cytometry (reference value: 2.0%)", "type": "functional"}, "[9]": {"tested_on": "CCRF-CEM", "assay": "Cell cycle arrest in human CCRF-CEM cells assessed as BrdU incorporation at IC50 measured after 24 hrs by propidium iodide/immunostaining based flow cytometry (reference value: 60.0%)", "type": "functional"}, "[10]": {"tested_on": "CCRF-CEM", "assay": "Cell cycle arrest in human CCRF-CEM cells assessed as increase in phosphorylation of histone H3 at Ser10 at 2 times IC50 measured after 6 to 12 hrs by Western blot analysis", "type": "functional, cell-based", "settings": "time 6-12 hrs"}, "[11]": {"tested_on": "HCT-116", "assay": "Cell cycle arrest in human HCT-116 cells assessed as accumulation at G2/M phase at IC50 measured after 24 hrs by propidium iodide staining based flow cytometry (reference value: 27.0%)", "type": "functional"}},
  "note": "Calls of active or inactive are those of the source. The rule behind the calls is not given here.",
  "data": [
    {"smiles": "O=c1c(O)c(-c2ccccc2)[nH]c2cc(F)c(Sc3ccccc3)cc12", "values": [
      {"measurement": "Activity", "setting": "[1]", "result": 15.5, "unit": "%"},
      {"measurement": "Activity", "setting": "[2]", "result": 64.1, "unit": "%"},
      {"measurement": "Activity", "setting": "[3]", "result": 6.2, "unit": "%"},
      {"measurement": "IC50", "setting": "[4]", "result": 3.7, "unit": "µM"},
      {"measurement": "Activity", "setting": "[5]", "result": 3.4, "unit": "%"},
      {"measurement": "Activity", "setting": "[6]", "result": 21.6, "unit": "%"},
      {"measurement": "Activity", "setting": "[7]", "result": 67.4, "unit": "%"},
      {"measurement": "Activity", "setting": "[8]", "result": 4.9, "unit": "%"},
      {"measurement": "Activity", "setting": "[9]", "result": 74.2, "unit": "%"},
      {"measurement": "Activity", "setting": "[10]", "result": "Active"},
      {"measurement": "Activity", "setting": "[11]", "result": 33.2, "unit": "%"}
    ]}
  ]
}
